Measured values reported in patent US20240391958A1, “KEANUMYCINS AND USES THEREOF IN MEDICINE AND PLANT PROTECTION” (Leibniz-Institut für Naturstoff-Forschung und …, priority 2023, published 2024).
Values after ≈ are worked out from the molar mass of the structure shown. Values joined by “and” are separate entries in the source; they are usually repeats but may differ in a detail not shown here. Identical values can stand only once. Like-named read-outs stand apart in the source and are kept apart here. Where a SMILES comes first, the peptide text is derived from it. Bridges are numbered along the chain shown (N, C = ends). [ ]: non-standard residue; d: D form. The star is where a group is joined. X1 = CCCCCCCCCCCC[C@@H](O)[C@@H](O)CC(=O)*; Asp(3S-OH) = N[C@H](C(=O)O)[C@H](O)C(=O)O; Thr(4-Cl) = N[C@H](C(=O)O)[C@H](O)CCl; aThr = C[C@H](O)[C@H](N)C(=O)O; d(hSer) = N[C@H](CCO)C(=O)O; dDab = NCC[C@@H](N)C(=O)O; Dab = NCC[C@H](N)C(=O)O; Dhb = C/C=C(\N)C(=O)O

Key:
[1] = system: human chronic myeloid leukemia cells K-562 (DSM ACC 10); test: Antiproliferative effect; type: cell-based
Procedure: (§1) Keanumycin A was assayed for antiproliferative effects (GI50) using human umbilical vein endothelial cells HUVEC (ATCC CRL-1730) and human chronic myeloid leukemia cells K-562 (DSM ACC 10) and for their cytotoxic effects (CC50) using human cervix carcinoma cells HeLa (DSM ACC 57) as previously described). The test compounds were dissolved in DMSO (10 mg mL-1).

[2] = system: human umbilical vein endothelial cells HUVEC (ATCC CRL-1730); test: Antiproliferative effect; type: cell-based
Procedure: as §1

[3] = Cytotoxicity; type: cell-based; conditions: human, HeLa cervix carcinoma cells (DSM ACC 57)
Procedure: as §1

[4] = system: Aspergillus fumigatus ATCC 204305; test: Broth dilution method (EUCAST); type: cell-based; conditions: Aspergillus fumigatus
Procedure: (§2) The activity assay was performed using the broth dilution method according to the EUCAST DEFINITIVE DOCUMENT E.DEF 9.3.2. B. cinerea and A. solani were incubated according to the Methods for dilution antimicrobial susceptibility tests for bacteria that grow aerobically by the NCCLS. Keanumycin A was dissolved in DMSO.

[5] = system: Candida auris 2021-353; test: Broth dilution method (EUCAST); type: cell-based
Procedure: as §2

[6] = system: Candida glabrata 2021-359; test: Broth dilution method (EUCAST); type: cell-based
Procedure: as §2

[7] = system: Candida parapsilosis ATCC 22019; test: Broth dilution method (EUCAST); type: cell-based; conditions: Lodderomyces parapsilosis
Procedure: as §2

[8] = system: Candida tropicalis 2021-360; test: Broth dilution method (EUCAST); type: cell-based
Procedure: as §2

[9] = system: Fusarium proliferatum 2021-361; test: Broth dilution method (EUCAST); type: cell-based
Procedure: as §2

[10] = system: Rhizopus arrhizus 2021-366; test: Broth dilution method (EUCAST); type: cell-based
Procedure: as §2

[11] = system: Scedosporium apiospermum 2016-079; test: Broth dilution method (EUCAST); type: cell-based
Procedure: as §2

[12] = system: C. albicans strain SC5314; test: MIC against C. albicans SC5314; type: cell-based; conditions: Candida albicans
[13] = system: human vaginal epithelial cells A431 infected with C. albicans; test: C. albicans vaginal epithelial infection model, epithelial damage (LDH); type: cell-based; conditions: 24 hours of infection, tested 1-16 μg/ml
Procedure: (§3) FIGS. 7A-7B show in 7A) Keanumycin A protected human vaginal epithelial cells in C. albicans infection model. Micrograph depicts % damage to human vaginal epithelial cells A431 (y-axis) in the presence of keanumycin A at varied concentrations (x-axis) as estimated by LDH cytotoxicity assay after 24 hours of infection or treatment. LDH absorbance was normalized to C. albicans infected and uninfected controls. Keanumycin A protected vaginal cells from damage by C. albicans at a narrow concentration range from 4-8 μg/ml (black line). Keanumycin A was toxic to vaginal cells at concentrations above 8 μg/ml (grey line) (N=3). […] Vaginal epithelial cells were lysed after 24-hour infection, and fungal viability was measured by XTT absorbance, normalized to C. albicans infected and uninfected controls (N=2) […]
(§4) Overnight culture of C. albicans strain SC5314 grown in YPD at 30° C., shaking at 180 RPM was harvested, washed twice with PBS. […] Epithelial damage was measured 24 hours after infection by collecting and diluting the supernatant 1:10 in PBS and measuring the lactate dehydrogenase (LDH) activity with the Roche Cytotoxicity Detection Kit (LDH) as per manufacturer's instructions. The absorbance (490 nm) values are represented as percentage damage, which is normalized to the low control, where medium only is 0% damage, and high control, where C. albicans infection is 100% damage. […]

[14] = system: human vaginal epithelial cells A431; test: Toxicity to uninfected vaginal epithelial cells (LDH); type: cell-based; conditions: A431 cells without infection, 24 hours
Procedure: as §3, §4

[15] = system: HAC1 mRNA; test: Splicing of HAC1 mRNA (Ire1-Hac1 UPR pathway); type: cell-based, Candida albicans; conditions: compared to positive tunicamycin control
Source text: (§5) To see if keanumycin A triggers the same canonical Ire1-Hac1 UPR pathway, the inventors looked at the splicing of HAC1 mRNA, which is regulated by Ire1. […] Since no other specific signaling pathway stood out, the inventors screened homozygous knockout mutants for significant growth differences in the absence and presence of a sublethal concentration of the NRLP. […] PLB5 is an important gene for phospholipid homeostasis and PMT6 codes for a transmembrane protein mannosyltransferase, which is involved in the construction of the outmost mannan cell wall layer in C. albicans.

[16] = system: C. albicans homozygous knockout mutants; test: Screen of homozygous knockout mutants for growth differences; type: cell-based, Candida albicans; conditions: absence vs presence of a sublethal concentration
Source text: as §5

[17] = system: C. albicans; test: Membrane permeabilization assay using SYTOX Green; type: cell-based, Candida albicans; conditions: 4 μg mL-1 in 1% DMSO
Source text: Only isolated cells are stained, which can be explained by the fact that the dye can also be used to distinguish dead from live cells. Scale bar=100 μm.
To finally examine if keanumycin A is a membrane-active compound, the inventors performed a membrane permeabilization assay using SYTOX Green (FIG. 6). As a cell-impermeant dye, SYTOX Green enters the cell upon loss of membrane integrity and binds to DNA, which results in fluorescently stained cells. […] Thus, the keanumycins are membrane-active compounds that disturb the structure of the fungal […].

C/C=C1\NC(=O)[C@H]([C@H](C)O)NC(=O)[C@H](CCN)NC(=O)[C@@H](CCO)NC(=O)CNC(=O)[C@@H](CCN)NC(=O)[C@@H](NC(=O)C[C@H](O)[C@H](O)CCCCCCCCCCCC)COC(=O)[C@H]([C@H](O)CCl)NC(=O)[C@H]([C@H](O)C(=O)O)NC1=O [Keanumycin A, keanumycin A] (X1-S[dDab]G[d(hSer)][Dab][aThr][Dhb][Asp(3S-OH)][Thr(4-Cl)]; ester 1-C)
GI50 ([1]; K562): 26.8 µg/mL
GI50 ([1]; K562, K-562, converted value, read-out: GI50): 23 µM
GI50 [2]: ≥ 50 µg/mL
GI50 ([2]; converted value, read-out: GI50): > 43 µM
CC50 [3]: 34.9 µg/mL
CC50 ([3]; HeLa, converted value): 30 µM
MIC ([4]; ATCC204305): 3.42 µM and 4 µg/mL
MIC ([4]; ATCC204305, read-out: Result of the broth dilution method assay (MIC)): 4 µg/mL (≈ 3.43 µM)
MIC ([5]; Candidozyma auris, 2021353): 0.86 µM and 1 µg/mL
MIC ([5]; Candidozyma auris, 2021353, read-out: Result of the broth dilution method assay (MIC)): 0.5 to 1 µg/mL (≈ 0.429 to 0.857 µM)
MIC ([6]; Nakaseomyces glabratus, 2021359): 0.86 µM and 1 µg/mL
MIC ([6]; Nakaseomyces glabratus, 2021359, read-out: Result of the broth dilution method assay (MIC)): 1 µg/mL (≈ 0.857 µM)
MIC ([7]; ATCC22019): 0.86 µM and 1 µg/mL
MIC ([7]; ATCC22019, read-out: Result of the broth dilution method assay (MIC)): 1 µg/mL (≈ 0.857 µM)
MIC ([8]; Candida tropicalis, 2021360): 0.86 µM and 1 µg/mL
MIC ([8]; Candida tropicalis, 2021360, read-out: Result of the broth dilution method assay (MIC)): 1 µg/mL (≈ 0.857 µM)
MIC [9]: > 6.85 µM and > 8 µg/mL
MIC ([9]; Fusarium proliferatum, 2021361, read-out: Result of the broth dilution method assay (MIC)): > 8 µg/mL
MIC ([10]; Rhizopus arrhizus, 2021366): > 6.85 µM and > 8 µg/mL
MIC ([10]; Rhizopus arrhizus, 2021366, read-out: Result of the broth dilution method assay (MIC)): > 8 µg/mL
MIC ([11]; Scedosporium apiospermum, 2016079): 6.85 µM and 8 µg/mL
MIC ([11]; Scedosporium apiospermum, 2016079, read-out: Result of the broth dilution method assay (MIC)): 8 µg/mL (≈ 6.86 µM)
MIC [12]: 1.72 µM (≈ 2.01 µg/mL)
concentration range protecting vaginal cells from damage by C. albicans [13]: 4 to 8 µg/mL
concentrations toxic to vaginal cells [14]: above 8 μg/ml
splicing of HAC1 mRNA [15]: could not observe splicing in HAC1 mRNA
growth differences of knockout mutants [16]: most prominent growth differences were observed for Δmkc1, Δplb5, and Δpmt6
membrane permeabilization (SYTOX Green staining) [17]: permeabilizes the cell wall of the fungi
membrane permeabilization (SYTOX Green staining) ([17]; listed as keanumycin A): staining of all cells
